Where a name gives a salt, the structure may show the parent alone.
Columns and labels:
[1] = In Vitro Intestinal Prodrug Hydrolysis Assay; assay type: in vitro ADME; settings: 1 h, 10 µM, pH 7.4
Protocol: Frozen human duodenum intestinal homogenates (1:2 tissue:buffer ratio using 100 mM Tris Phosphate buffer, pH 7.4) are obtained from Celsius In Vitro Technologies (Baltimore, Md.) that were both phenylmethylsulphonylfluoride (PMSF) and EDTA free.
Each lot of human duodenum is obtained from a single donor and the intestine is scraped and the sections are frozen separate. All original tissue collections are performed at 4° C. and immediately frozen at −70° C.
Hydrolysis of the positive control, Internal Prodrug Compound A to Internal Compound Drug A, run in every batch averaged 75.3% (n=20). Final values are then normalized relative to the formation of Internal Compound Drug A.

[2] = test system: PCP-induced hyperlocomotor activity in mice; experiment: Reversal of Phencyclidine (PCP)-Induced Hyperlocomotor Activity in Mice; assay type: in vivo, mouse; settings: for ED50: Mus musculus, i.p. administration, 30 minutes prior to 7.5 mg/kg PCP
Text: This assay for Reversal of Phencyclidine (PCP)-Induced Hyperlocomotor Activity in Mice is run substantially as the Reversal of Phencyclidine (PCP)-Induced Hyperlocomotor Activity in Rats assay provided above, using mice instead of rats and with the changes noted below.
Motor activity is monitored by placing individual male, ICR (CD-1), (Harlan, Indianapolis, Ind.) mice in transparent, plastic shoe-box cages of the dimensions 45×25×20 cm, with 0.5 cm depth of wood chips as bedding, and plastic lid on top of the cage. Motor monitors (Kinder Scientific) consist of a rectangular rack of 12 photobeams arranged in an 8×4 formation, (or a high density grouping of 22 in a 15×7 pattern) at a height of 2.5 cm. The shoe box cage is placed inside of these racks, with the racks on a 3 foot high tabletop in an isolated room. A compound of the present invention is dosed (intraperitoneal route, non-prodrug) usually within a range of 0.3-30 mg/kg; though higher doses may be used, 30 minutes prior to a 7.5 mg/kg challenge dose of phencyclidine (PCP). On the test day, mice are placed in the test cage and allowed to acclimate for 45 minutes prior to PCP challenge; mice are monitored for an additional 60 minutes following PCP administration.
Power analyses have determined that 7-8 mice per group are needed to have appropriate statistical power for detecting treatment differences (power=0.8).

[3] = test system: immobility in forced swim test in mice; experiment: Forced Swim Test in Rodents (mice); assay type: in vivo, mouse; settings: for ED60 (60% of the amount of immobility relative to vehicle controls): intraperitoneal dosing 60 min prior to testing
Protocol: In this assay, mechanisms with purported antidepressant-like activity decrease immobility in a brief inescapable forced swim episode.
The forced-swim test was conducted in mice (male, NIH-Swiss mice, 20-25 g, Harlan Sprague-Dawley, Indianapolis, Ind.). Mice are placed in clear plastic cylinders (diameter 10 cm; height: 25 cm) filled to 6 cm with 22-25° C. water for six min. The duration of immobility is recorded during the last 4 min of a six-minute trial. The compounds of Examples 2, 3, 8, 11, and 12 are tested following intraperitoneal dosing, 60 min prior to testing. Imipramine is used as a positive control for these studies. Compounds are formulated in a water vehicle, with minimal NaOH added. The amount of time spent immobile (defined as movements only necessary to keep the subject's head above water) is the dependent measure and recorded by an observer blinded to the drug treatment of the subjects. Data are analyzed by post-hoc Dunnett's test with alpha level set at 0.05.

PepT1 = biological target: T1, PepT1 (Homo sapiens, UniProt P46059); experiment: In Vitro PepT1 GlySar Inhibition Screen; assay type: cell-based; settings: prodrug at 5 mM, pH 6.0, PepT1 transiently transfected HeLa cells, 5 μM [14C]Gly-Sar and 20 μM cold Gly-Sar; read-out: Mean GlySar Uptake Inhibition %
T1 construct: expressed in transfected cells; host or cells: HeLa cells (ATCC), transient transfection with FUGENE6
T1 sequence (P46059 1-708): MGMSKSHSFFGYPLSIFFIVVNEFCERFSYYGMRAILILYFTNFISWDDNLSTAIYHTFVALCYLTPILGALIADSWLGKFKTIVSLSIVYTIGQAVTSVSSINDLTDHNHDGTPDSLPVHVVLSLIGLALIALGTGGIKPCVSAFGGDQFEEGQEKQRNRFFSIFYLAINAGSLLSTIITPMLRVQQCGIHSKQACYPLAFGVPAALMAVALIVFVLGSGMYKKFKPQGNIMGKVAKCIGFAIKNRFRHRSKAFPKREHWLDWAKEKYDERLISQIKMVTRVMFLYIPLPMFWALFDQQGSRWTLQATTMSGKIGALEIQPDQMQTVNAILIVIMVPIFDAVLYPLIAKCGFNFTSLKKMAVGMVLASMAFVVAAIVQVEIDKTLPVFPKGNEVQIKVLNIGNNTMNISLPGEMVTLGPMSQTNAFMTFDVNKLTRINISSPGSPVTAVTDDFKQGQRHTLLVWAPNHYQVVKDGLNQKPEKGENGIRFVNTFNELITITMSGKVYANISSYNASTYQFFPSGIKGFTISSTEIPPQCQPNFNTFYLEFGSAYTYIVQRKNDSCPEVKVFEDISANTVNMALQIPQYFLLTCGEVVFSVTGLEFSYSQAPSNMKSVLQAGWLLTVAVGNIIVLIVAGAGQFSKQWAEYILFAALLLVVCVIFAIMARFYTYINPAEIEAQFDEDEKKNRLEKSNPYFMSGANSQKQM
Protocol: PepT1 assays are established to examine the ability of the amino acid prodrug compounds to interact with the intestinal absorption transporter PepT1.
HeLa cells, derived from human cancer cells, (American Type Culture Collection) are grown in Hyclone Medium (Invitrogen, Cat# SH30243) containing 10% fetal bovine serum (FBS), 0.1 mM non essential amino acids (NEAA), and 100 units/mL penicillin with 100 μg/mL streptomycin at 37° C. in a 5% CO2 humidified atmosphere. The cell line is used for up to 40 passages and then discarded. Frozen cells in 1 mL vials are thawed in water bath for 1-2 minutes and added to 5 mL of cell medium at 37° C. Each of the T-flasks is provided with 8.5 mL of the fresh medium and 1.5 mL of the cell stock. Cells are passaged twice during a week. […] Each new flask receives a combination of 8.5 mL of fresh medium and 1.5 mL of cell stock, in order to obtain 1:6 cell dilution. Cells are incubated at 37° C., until ready for the uptake study.
Cells that are 70-80% confluent in the T-flasks are plated 1 day prior to the transfection procedure. The flask with the cell stock is treated with PBS-EDTA and trypsin to detach the cells, and transfection medium is used from this point. Transfection medium consists of Dulbecco's Modified Eagle Medium (DMEM)+NEAA. To each well, 0.5 mL of the cell mixture is added (1.3×10^5 is the desired cell concentration) and the cells are incubated at 37° C. overnight. Twenty four hours before the assay, cells are transfected with PEPT1. Transfection mixture is prepared by mixing 600 μL of serum free transfection medium, 18 μL of FUGENE6® (Roche Diagnostics), and 11 μg of the PepT1 DNA. The transfection reagent-DNA complex is incubated for 20 minutes and 24 μL of the reagent-DNA complex is added to each well.
Inhibition of PEPT1-mediated [glycyl-1-2-^14C]Glyclysarcosine (GlySar) uptake activity is measured in the cells cultured in the 24-well plates 24-hours post transfection as previously published (Zhang et al. 2004. J. Pharm. Exper Ther. 310:437-445). To measure the ability of a compound of the present invention to inhibit the uptake of [^14C]Gly-Sar, prodrug compounds are incubated with 80 to 90% confluent PepT1 transiently transfected HeLa cells at 5 mM in pH 6.0 uptake medium in the presence of 5 μM [^14C]Gly-Sar (Moravek Biochemicals) and 20 μM cold Gly-Sar. Uptake media consists of 140 mM NaCl, 5.4 mM KCl, 1.8 mM CaCl2, 0.8 mM MgSO4, 5 mM Glucose, 25 mM tris(hydroxymethyl)aminomethane buffer (TRIS). The solution is then brought to pH 6.0 using 2-(N-morpholino)ethanesulfonic acid. The incubation volume is 500 μL and is performed at room temperature for 3 minutes. To stop the uptake at the conclusion of the incubation time, the uptake media is aspirated off of the cell monolayer and 500 μL of ice cold PBS added to the well. The cells are washed 3 times with 500 μL of room temperature PBS without Ca^+2 and Mg^+2. The cells are then lysed with 300 μL of 1% TRITON® X100 H2O solution. A 200 μL aliquot is removed and radioactivity is determined by liquid scintillation counting to measure the [^14C]Gly-Sar present in each of the incubation wells. A no inhibitor control is established and the percent inhibition of each prodrug is calculated with respect to this control.

SMILES | In Vitro Human Intestinal Hydrolysis % (relative to positive control) [1] [%] | ED60 (60% of the amount of immobility relative to vehicle controls) [3] [mg/kg] | other results
C[C@H](N)C(=O)N[C@@]1(C(=O)O)C[C@@H](Sc2cn[nH]n2)[C@H]2[C@H](C(=O)O)[C@H]21.Cl [Example 19, (1R,2S,4R,5R,6R)-2-[[(2S)-2-Aminopropanoyl]amino]4-(2H-1,2,3-triazol-4-ylsulfanyl)bicyclo[3.1.0] hexane-2,6-dicarboxylic acid hydrochloride] | 58.1 |  | 
Cl.NCC(=O)N[C@@]1(C(=O)O)C[C@@H](Sc2nnc(C(F)(F)F)[nH]2)[C@H]2[C@H](C(=O)O)[C@H]21 [Example 18, (1R,2S,4R,5R,6R)-2-(glycylamino)-4-{[5-(trifluoromethyl)-1H-1,2,4-triazol-3-yl]sulfanyl}bicyclo[3.1.0] hexane-2,6-dicarboxylic acid hydrochloride] | 65.5 |  | 
N[C@@]1(C(=O)O)C[C@H](Sc2c[nH]nn2)[C@H]2[C@H](C(=O)O)[C@H]21 [Example 11, (1R,2S,4S,5R,6R)-2-Amino-4-(1H-triazol-4-ylsulfanyl)bicyclo[3.1.0] hexane-2,6-dicarboxylic acid hydrochloride] |  | 0.88 | ED50 [2]: 1.2 mg/kg; efficacy in forced swim test, second study ([3]; i.p., higher doses (3-30 mg/kg)): efficacy was lost
CSCC[C@H](N)C(=O)N[C@@]1(C(=O)O)C[C@@H](Sc2cn[nH]n2)[C@H]2[C@H](C(=O)O)[C@H]21.Cl [Example 21, (1R,2S,4R,5R,6R)-2-((S)-2-Amino-4-methylsulfanyl-butyrylamino)-4-(2H-[1,2,3]triazol-4-ylsulfanyl)-bicyclo[3.1.0]hexane-2,6-dicarboxylic acid hydrochloride] | 63.8 |  | inhibition at 5000 µM (PepT1): 57.4%
Cl.N[C@@]1(C(=O)O)C[C@@H](Sc2nnc(C(F)F)[nH]2)[C@H]2[C@H](C(=O)O)[C@H]21 [Example 8, (1R,2S,4R,5R,6R)-2-Amino-4-(5-difluoromethyl-1H-[1,2,4]triazol-3-ylsulfanyl)-bicyclo[3.1.0]hexane-2,6-dicarboxylic acid hydrochloride] |  | 7.95 | reversal of PCP-induced locomotor activity ([2]; single dose of 10 mg/kg): 52%
Nc1nnc(S[C@@H]2C[C@@](N)(C(=O)O)[C@@H]3[C@@H](C(=O)O)[C@@H]32)[nH]1 [Example 3, (1R,2S,4R,5R,6R)-2-Amino-4-(5-amino-[1,3,4]triazol-2-ylsulfanyl)-bicyclo[3.1.0]hexane-2,6-dicarboxylic acid] |  | < 3 | ED50 [2]: 17.1 mg/kg
CSCC[C@H](N)C(=O)N[C@@]1(C(=O)O)C[C@@H](Sc2nnc(C(F)(F)F)[nH]2)[C@H]2[C@H](C(=O)O)[C@H]21.Cl [Example 17, (1R,2S,4R,5R,6R)-2-((S)-2-Amino-4-methylsulfanyl-butyrylamino)-4-(5-trifluoromethyl-1H-[1,2,4]triazol-3-ylsulfanyl)-bicyclo[3.1.0]hexane-2,6-dicarboxylic acid hydrochloride] | 63.3 |  | 
